According to patent US5777190A (priority 1997, dated 1998):

Columns and labels:
[1] = biological target: ferredoxin NADP oxidoreductase (FNR, EC 1.18.1.2) from spinach (Spinacia oleracea, UniProt P00455)
rats = details: rat, in vivo; cited from earlier work

Sequence of ferredoxin NADP oxidoreductase (FNR, EC 1.18.1.2) from spinach (P00455 56-369): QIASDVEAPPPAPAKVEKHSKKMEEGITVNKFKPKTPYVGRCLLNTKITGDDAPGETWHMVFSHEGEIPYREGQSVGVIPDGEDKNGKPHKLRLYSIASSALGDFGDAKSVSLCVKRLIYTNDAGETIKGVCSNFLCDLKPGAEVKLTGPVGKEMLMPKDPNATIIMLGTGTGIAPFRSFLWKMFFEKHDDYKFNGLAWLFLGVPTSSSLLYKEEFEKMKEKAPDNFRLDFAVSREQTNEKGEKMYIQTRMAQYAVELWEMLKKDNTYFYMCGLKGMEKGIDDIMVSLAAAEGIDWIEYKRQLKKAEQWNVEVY

O=[N+]([O-])c1ccccc1 [nitrobenzene]
reduction by FNR under aerobic conditions [1]: not reduced | stoichiometry of transformation by FNR [1]: One mole of PHA is formed for every mole of nitrobenzene | reduction by FNR under nitrogen (product formed) ([1]; pH 8.5): transformation of nitrobenzene to PHA by FNR | LD50 (rats): 640 mg/kg
